Values joined by “and” are separate entries in the source; they are usually repeats but may differ in a detail not shown here. Equal values may be shown once.
Assays:
CyclinB/cdk1 = biological target: T1, CyclinB/cdk1 (Homo sapiens, UniProt P06493); assay: CyclinB/cdk1 protein kinase assay (histone H1 phosphorylation); assay type: biochemical; details: Table 2; complexes isolated from HeLa cells, histone H1, 15 μM ATP; replicate experimental results; read-out: IC50 CyclinB/cdkl
T1 construct: Monoclonal antibody against cyclinB (GNS1) is added to the supernatant; endogenous in cells

HeLa S-3 cells = assay: Inhibition of cell growth (SRB), HeLa; assay type: cell-based, human; details: Table 2, 2 days of treatment, replicate experimental results
Method: D. Measuring the Inhibition of Cell Growth.
Growth inhibition (GI50) values were measured with HeLa S-3 cells selected for growth on plastic. […] One day later, a control plate was fixed by addition of TCA to 5%. After five rinses with tap water the plate was air dried and stored at 4° C. Test compounds were added to the remaining plates at 10-fold dilutions between 0.01 and 100 μM. Two days later all plates were fixed as described above. Cells were then stained by the addition of 100 […] of 0.4% sulforhodamine B (SRB) in 1% acetic acid for 30 min at 4° C. Wells were then quickly rinsed 5× with acetic acid (1%) and allowed to air dry. The SRB was then solubilized by the addition of 100 μl per well of unbuffered 10 mM Tris base. Dye was quantified by measuring absorbance at 490 nm on a Molecular Devices kinetic microplate reader. Growth at each inhibitor concentration relative to the untreated control was calculated according to the following equation: percent growth=100×(T−To)/(C−To), where T was the average optical density (OD) of the test wells after 2 days of treatment, To was the average OD of the wells in the control plate on day 0 and C was the average OD of untreated wells. Plots of percent growth versus inhibitor concentration were used to determine the GI50.

T1 sequence (P06493 whole entry): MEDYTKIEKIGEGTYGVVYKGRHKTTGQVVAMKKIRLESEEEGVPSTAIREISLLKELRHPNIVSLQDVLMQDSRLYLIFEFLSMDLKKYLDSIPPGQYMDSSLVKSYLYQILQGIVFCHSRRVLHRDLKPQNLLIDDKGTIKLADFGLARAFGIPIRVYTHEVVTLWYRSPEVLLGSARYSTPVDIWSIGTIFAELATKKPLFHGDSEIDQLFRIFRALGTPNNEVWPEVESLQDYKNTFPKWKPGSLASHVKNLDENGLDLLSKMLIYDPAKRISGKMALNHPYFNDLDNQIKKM
T1 sequence (P14635 whole entry partner): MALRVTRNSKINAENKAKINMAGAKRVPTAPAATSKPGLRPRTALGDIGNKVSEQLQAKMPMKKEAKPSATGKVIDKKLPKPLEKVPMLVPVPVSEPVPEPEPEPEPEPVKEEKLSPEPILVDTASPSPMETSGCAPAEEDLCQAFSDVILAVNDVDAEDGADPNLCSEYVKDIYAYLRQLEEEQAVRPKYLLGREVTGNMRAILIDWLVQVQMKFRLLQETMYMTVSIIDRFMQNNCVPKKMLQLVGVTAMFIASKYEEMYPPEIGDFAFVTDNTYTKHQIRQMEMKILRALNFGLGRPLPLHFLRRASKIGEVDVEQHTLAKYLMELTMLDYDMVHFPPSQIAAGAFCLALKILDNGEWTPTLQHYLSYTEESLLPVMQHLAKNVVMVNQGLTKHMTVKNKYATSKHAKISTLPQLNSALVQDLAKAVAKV

| GI50 (HeLa S-3 cells) | melting point | Compound | also measured |
| --- | --- | --- | --- |
|  |  | CC[C@H](CO)Nc1nc(NCc2ccc(-c3cccc([N+](=O)[O-])c3)cc2)c2ncn(C(C)C)c2n1 [Compound 48] | IC50 (CyclinB/cdk1): > 10000 nM |
| > 10000 nM |  | CC(C)n1cnc2c(NCc3ccc(-c4ccsc4)cc3)nc(N[C@H]3CC[C@H](NC(=O)OC(C)(C)C)CC3)nc21 [Compound 130] |  |
| 2000 nM | 211 to 216 °C | CC(C)n1cnc2c(NCc3cccc(-c4ccsc4)c3)nc(N[C@H]3CC[C@H](N)CC3)nc21 [Compound 131] | GI50 (HeLa S-3 cells; Homo sapiens, HeLa S3, 48 h): 3000 nM |
| 3000 nM | 209 to 211 °C | CC(=O)N[C@H]1CC[C@H](Nc2nc(NCc3cccc(-c4ccsc4)c3)c3ncn(C(C)C)c3n2)CC1 [Compound 132] | GI50 (HeLa S-3 cells; Homo sapiens, HeLa S3, 48 h): 4000 nM |
| > 10000 nM |  | CC(C)n1cnc2c(NCc3ccc(-c4ccccc4)cc3)nc(N[C@H]3CC[C@H](NC(=O)OC(C)(C)C)CC3)nc21 [Compound 133] |  |
| 400 nM and 200 nM |  | CC(=O)NC1CCC(Nc2nc(NCc3ccc(-c4cccc(C)c4)cc3)c3ncn(C(C)C)c3n2)CC1 (centres unmarked) [Compound 178] |  |
| 400 nM and 300 nM |  | COc1cccc(-c2ccc(CNc3nc(NC4CCC(NC(C)=O)CC4)nc4c3ncn4C(C)C)cc2)c1 (centres unmarked) [Compound 180] |  |
|  | 199 to 230 °C | CC(=O)N[C@H]1CC[C@H](Nc2nc(NCc3ccc(-c4cccc(F)c4)nc3)c3ncn(C(C)C)c3n2)CC1 [Compound 188] |  |
|  | 216 to 218 °C | CC(=O)N[C@H]1CC[C@H](Nc2nc(NCc3ccc(-c4ccco4)nc3)c3ncn(C(C)C)c3n2)CC1 [Compound 206] |  |
| 4000 nM and 3000 nM |  | CC(=O)NCCNc1nc(NCc2ccc(-c3ccccc3)cc2)c2ncn(C(C)C)c2n1 [Compound 208] |  |
|  |  | CC(C)n1cnc2c(NCc3ccc(-c4ccccc4)cn3)nc(N[C@H]3CC[C@H](N)CC3)nc21 [Compound 229] | GI50 (HeLa S-3 cells; Homo sapiens, HeLa S3, 48 h): 400 nM |
| 300 nM and 400 nM and 700 nM |  | COC(=O)NC1CCC(Nc2nc(NCc3ccc(-c4ccccc4)cc3)c3ncn(C(C)C)c3n2)CC1 (centres unmarked) [Compound 259] |  |
| 300 nM |  | CC(C)n1cnc2c(NCc3ccc(-c4ccccc4)cc3)nc(NC3CCC(NC(=O)C4CC4)CC3)nc21 (centres unmarked) [Compound 261] |  |

From US6812232B2, “Heterocycle substituted purine derivatives as potent antiproliferative agents” (AMR Technology, Inc., priority 2001, dated 2004)
